Earlier results, collected in US20250137032A1, “TWO-COMPONENT SYSTEMS FOR USE IN CELL-FREE GENE EXPRESSION” (priority 2023, published 2025).

Conditions: literature value, cited from earlier work; for Kc (kBT) (6): bending rigidity; for CPP (4): critical packing parameter; for Tm (7): membrane transition temperature, in °C (unit assumed)

SMILES: CCCCCCCC/C=C\CCCCCCCC(=O)O[C@H](COC(=O)CCCCCCCCCCCCCCC)COP(=O)([O-])OCC(O)CO.[Na+] (mixture of isomers) [POPG, 1-palmitoyl-2-oleoyl-sn-glycero-3-phospho-(1′-rac-glycerol) (sodium salt)]
- Kc (kBT) (6): 26.9 kBT
- CPP (4): 0.7
- 2 Dc (A) (2): 27.9 A
- Area (Å^2) (1): 66 Å^2
- C2:C2 (Å) (6): 26.88 Å
- DHH (Å) (2): 38.5 Å
- F (kcal/mol/Å) (6): 0.0036 kcal/mol/Å
- Ka (dyn/cm) (6): 180 dyn/cm
- Kc^PBM (6): 5.67
- Kg (10^−20 J) (6): −2.76 10^−20 J
- Kg/Kc (6): −0.24
- Kg^M (10^−20 J) (6): −1.43 10^−20 J
- Kg^M/Kc^M (6): −0.25
- Ktw (10^−20 J) (6): 1.05 10^−20 J
- Kθ (10^−20 J/nm^2) (6): 6.15 10^−20 J/nm^2
- Lipid Volume (A^3) (3): 1226.6 A^3
- P-C (Å) Head group thickness (6): 10.61 Å
- P:P (Å) (6): 37.49 Å
- δ (Å) (6): 9.57 Å
- Tm (7): −2

SMILES: CCCCCCCCCCCCCC(=O)OC[C@H](COP(=O)([O-])OCC[N+](C)(C)C)OC(=O)CCCCCCCCCCCCC [DMPC, 1,2-dimyristoyl-sn-glycero-3-phosphocholine]
- Kc (kBT) (6): 29.3 kBT
- CPP (4): 1
- 2 Dc (A) (2): 25.4 A
- Area (Å^2) (1): 60.6 Å^2
- C2:C2 (Å) (6): 24.54 Å
- DHH (Å) (2): 35.3 Å
- F (kcal/mol/Å) (6): −0.0225 kcal/mol/Å
- Ka (dyn/cm) (6): 210 dyn/cm
- Kc^PBM (6): 5.75
- Kg (10^−20 J) (6): −3.23 10^−20 J
- Kg/Kc (6): −0.26
- Kg^M (10^−20 J) (6): −1.32 10^−20 J
- Kg^M/Kc^M (6): −0.22
- Ktw (10^−20 J) (6): 2.18 10^−20 J
- Kθ (10^−20 J/nm^2) (6): 4.02 10^−20 J/nm^2
- Lateral Pressure (pN/nm^2) (3): 442 pN/nm^2
- Lipid Volume (A^3) (3): 1100 A^3
- P-C (Å) Head group thickness (6): 11.11 Å
- P:P (Å) (6): 35.65 Å
- Ro (Å) (6): −47 Å
- γ chain (6): 0.247
- δ (Å) (6): 9.48 Å
- Tm (7): 24

SMILES: CCCCCCCC/C=C\CCCCCCCC(=O)OC[C@H](COP(=O)([O-])OCC[N+](C)(C)C)OC(=O)CCCCCCC/C=C\CCCCCCCC [DOPC, 1,2-dioleoyl-sn-glycero-3-phosphocholine]
- Kc (kBT) (6): 28.8 kBT
- CPP (4): 1.09
- 2 Dc (A) (2): 28.8 A
- Area (Å^2) (1): 67.4 Å^2
- C2:C2 (Å) (6): 27.37 Å
- DHH (Å) (2): 36.7 Å
- F (kcal/mol/Å) (6): 0.061 kcal/mol/Å
- Ka (dyn/cm) (6): 290 dyn/cm
- Kc^PBM (6): 9.71
- Kg (10^−20 J) (6): −0.08 10^−20 J
- Kg/Kc (6): −0.01
- Kg^M (10^−20 J) (6): −0.84 10^−20 J
- Kg^M/Kc^M (6): −0.14
- Ktw (10^−20 J) (6): 0.99 10^−20 J
- Kθ (10^−20 J/nm^2) (6): 6.4 10^−20 J/nm^2
- Lateral Pressure (pN/nm^2) (3): 480 pN/nm^2
- Lipid Volume (A^3) (3): 1304.5 A^3
- P-C (Å) Head group thickness (6): 10.98 Å
- P:P (Å) (6): 38.35 Å
- γ chain (6): 0.18(5) ·
- δ (Å) (6): 9.41 Å
- Tm (7): −17

SMILES: CCCCCCCC/C=C\CCCCCCCC(=O)OC(COC(=O)CCCCCCCCCCCCCCC)COP(=O)([O-])OCC[N+](C)(C)C (centres unmarked) [POPC, 1-palmitoyl-2-oleoyl-glycero-3-phosphocholine]
- Kc (kBT) (6): 31.7 kBT
- CPP (4): 0.61
- 2 Dc (A) (2): 28.8 A
- # of lipid contacts (5): 2.75
- Area (Å^2) (1): 64.3 Å^2
- C2:C2 (Å) (6): 27.52 Å
- DHH (Å) (2): 37 Å
- F (kcal/mol/Å) (6): 0.0303 kcal/mol/Å
- Ka (dyn/cm) (6): 280 dyn/cm
- Kc^PBM (6): 9.5
- Kg (10^−20 J) (6): −1.38 10^−20 J
- Kg/Kc (6): −0.1
- Kg^M (10^−20 J) (6): −1.09 10^−20 J
- Kg^M/Kc^M (6): −0.17
- Ktw (10^−20 J) (6): 1.45 10^−20 J
- Kθ (10^−20 J/nm^2) (6): 5.52 10^−20 J/nm^2
- Lateral Pressure (pN/nm^2) (3): 517 pN/nm^2
- Lipid Volume (A^3) (3): 1231.2 A^3
- P-C (Å) Head group thickness (6): 11.02 Å
- P:P (Å) (6): 38.54 Å
- Ro (Å) (6): −315 Å
- γ chain (6): 0.198
- δ (Å) (6): 9.64 Å
- Tm (7): −9
